Earlier results as cited in patent publication US10912741B2, “Prevention of liver cancer with safranal-based formulations” (United Arab Emirates University, priority 2019, dated 2021).

System: HeLa cells
Conditions: reported in the background; cited from earlier work

Structure (SMILES)	growth of HeLa cells
CC(/C=C/C=C(\C)C(=O)O[C@@H]1O[C@H](CO[C@@H]2O[C@H](CO)[C@@H](O)[C@H](O)[C@H]2O)[C@@H](O)[C@H](O)[C@H]1O)=C\C=C\C=C(C)\C=C\C=C(/C)C(=O)O[C@@H]1O[C@H](CO[C@@H]2O[C@H](CO)[C@@H](O)[C@H](O)[C@H]2O)[C@@H](O)[C@H](O)[C@H]1O [crocin]	inhibit the growth of HeLa cells
CC1=C(C=O)C(C)(C)C[C@H](O[C@@H]2O[C@H](CO)[C@@H](O)[C@H](O)[C@H]2O)C1 [picrocrocin]	inhibit the growth of HeLa cells
